Source: patent US8617528B2, “Compositions and methods for stabilizing ingredients using 2,4-pentanedione compounds” (Sytheon Ltd., priority 2010, dated 2013)
Blank lines part the entries; values can stand above or below the compound they belong to.

Tests used:
[1] = solar simulator, total energy 100 mJ/cm^2; cited from earlier work
[2] = cited from earlier work
[3] = Photostabilization of avobenzone in ethanol test solution under sun simulator
Experimental: A comparative photostabilization study was conducted comparing the photostabilization efficacy of the compound of Example 1, HSS, and the compound of Example 3 (Compound 3) with Octocrylene and Oxynex® ST in the stabilization of avobenzone. Samples for evaluation were prepared as follows:
Solutions in ethanol are prepared at respective concentrations of photosensitive materials and photostabilizer (typically 1:1 to 1:5 weight ratio). A base test solution of 3% Avobenzone+5% Octyl salicylate +10% Homoslate in Ethanol (the “Test Solution”) was made. Seven additional solutions were prepared by adding 2% Synoxyl™ HSS, 4% Synoxyl™ HSS, 4% Compound 3, 2% Octocrylene, 4% Octocrylene, 2% Oxynex® ST, and 2% dehydrozingerone methyl ether, respectively, to seven aliquots of the Test Solution.
(§1) Samples of each solution were prepared as ultrathin films between two quartz plates so as to obtain a minimum of 90% light transmission over the entire spectrum range of non absorbing chromophores. For example, ingredients which absorb only in the UV range were tested in formulation to obtain a minimum of 90% light transmission over the visible range. Each sample was then irradiated under sun simulator (754 W/m^2, 2 MED/h, UV dose from 20 to 100 Joules/cm^2) for various durations and light absorption spectra recorded for each sample at given times. The maximal absorption band λmax of each solution was determined before and after irradiation. The amount of the photosensitive materials remaining in solution after irradiation was calculated as the ratio of their two maximal absorptions.

[4] = Hydrolytic stability of HSS in water at pH 7, 8, 9 (GC purity of recovered solid); assay type: physicochemical
Experimental: A series of hydrolytic stability tests were conducted on the compound of Example 1, HSS, as follows
pH7: 2.5 g of samples of HSS were placed in 100 ml round bottom flasks and 50 ml of double distilled water (pH 7) added to each. […] Thereafter each sample was filtered and the solids dried.
pH 8: 2.5 g of samples of HSS were placed in 100 ml round bottom flasks and 50 ml of double distilled water which had been adjusted to pH 8 using 0.01N NaOH solution added to each. […] Thereafter each sample was filtered and the solids dried.
pH 9: 2.5 g of samples of HSS were placed in 100 ml round bottom flasks and 50 ml of double distilled water which had been adjusted to pH 9 using 0.1N NaOH solution added to each. […] Thereafter each sample was filtered and the solids dried.
Each dried sample was analyzed by gas chromatography using an HP-5, 15 m, 0.53 mm id, capillary column with following set-up and test parameters: • Injection temperature: 250° C. • Oven temp: 50° C. (2 min), 10° C. to 260° C. (20 min) • Detector: FID • Detector temp: 260° C. • Carrier gas: Nitrogen • Column flow: 3.0 ml/min • Split ratio: 5:1 • Injection Volume: 1 micro liter • Sample concentration: 100 mg/ml in Methanol
The initial purity of the HSS used to make Samples A through F was 98.9% as determined by the aforementioned GC procedure.

[5] = Stability of HSS in the presence of iron and copper ions (UV absorbance at 319 nm); assay type: physicochemical; conditions: acetate buffer pH 6.5/ethanol, room temperature
Experimental: A base buffer solution was prepared by dissolving 13.608 g of sodium acetate in 1000 ml water and then adjusting the pH to 6.5 with acetic acid to form a 0.1 M acetate solution and then combining 75 parts by weight of this solution with 25 parts by weight ethanol.
A copper sulfate solution was prepared by dissolving 24.968 mg of copper sulfate (CuSO4.5H2O) in 100 ml of the base buffer solution.
A ferric sulfate solution was prepared by dissolving 16.22 mg of […] in 100 ml of the base buffer solution.
Finally a 100 μM test solution of HSS was prepared by dissolving 27.8 mg of HSS in 10 ml of the base buffer solution and then diluting 0.1 ml of this solution to 10 ml with additional base buffer solution.
Two test solutions were prepared as follows:
Copper Stability: 0.1 ml of the 100 μM solution of HSS was combined with 0.1 ml of the 10 μM CuSO4 solution in a 10 ml volumetric flask and additional base buffer solution added to make up to volume (to 10 ml). […]
The two test solutions and a sample of the HSS solution were then evaluated to assess what, if any, auto-oxidation of the HSS occurred in the presence of Cu^2+ and Fe^3+ ions. Stability or instability was evaluated by monitoring the absorbance at 319 nm for HSS at room temperature using a Shimadzu spectrophotometer.

[6] = Photostability of sunscreen formulation under sun simulator
Experimental: as §1
Three samples of this were taken for photostability testing according to the method of Example 6 above. The first sample, the Control, was not modified whereas the two remaining samples were modified by incorporating therein 2% of the compound of Example 1, HSS, and 4% octocrylene, respectively. The three formulations were prepared by first preparing each of Phase A1 and A2 and then dispersing Phase A2 in Phase A1 with agitation and heating to 75 C. Phase B was prepared and heated to 75° C. Phase B is then combined with the Phase A mixture with continuous stirring. The combination was subsequently homogenized for 2-3 minutes, and the batch cooled to 45° C. Phases C and were separately prepared and then mixed with the cooled batch until uniform.
As with Example 6, each was exposed to irradiation for various durations and the photostability tested. As evidenced from the results shown in Table 7, the stabilizer compound of the present invention performed markedly better than that of the conventional photostabilizer in the formulated product.

[7] = Stabilization of colored shampoo under fluorescent light (Delta E); conditions: 0.4 g HSS in 120 g shampoo, ambient temperature, 4 weeks
Experimental: The stabilizer compound according to Example 1, Synoxyl™ HSS, was added to a commercial shampoo formulation in order to evaluate its ability to reduce the amount of dye fading following exposure to fluorescent lighting. The sample was prepared by dissolving 0.4 g of HSS in 5 ml of ethanol and then adding the solution to 120 g of Suave® Natural Fresh Mountain Strawberry Shampoo with agitation and agitated for 15 minutes. A sample of the unmodified shampoo and the modified shampoo are then placed into 20 ml glass scintillation vials. Both sets of vials were weathered under fluorescent light aging at ambient temperature for 4 weeks. The L*a*b coordinates before and after exposure are measured using X-Rite 938 Spectro-densitometer. Color change is expressed as Delta E (ΔE) which is calculated by the formula: ΔE=[(ΔL*)^2+(Δa*)^2+(Δb*)^2]^1/2
Following the 4 week exposure the change in color, Delta E, was 21.6 for the unmodified shampoo and 12.3 for the modified shampoo.

[8] = Photostabilization of water-soluble dyes under solar simulated light; conditions: 0.05% stabilizer, FD&C Yellow No 5 or Red No 40, solar simulated light ~40 hours
Experimental: The stabilizer compound Synoxyl™ HSS according to Example 1 was added to the two dye compositions of Table 9, one containing Yellow No 5 and the other Red No 40, in order to evaluate its ability to reduce the extent of color fading resulting from their exposure to solar simulated light. In both formulations without the Synoxyl™ HSS, visible and marked color fading was noted following just 2 hours of light exposure.

[9] = 4% stabilizer in Test Solution (3% Avobenzone), UV dose 0 Joules/cm^2
[10] = 4% stabilizer in Test Solution (3% Avobenzone), UV dose 20 Joules/cm^2
[11] = 4% stabilizer in Test Solution (3% Avobenzone), UV dose 40 Joules/cm^2
[12] = 4% stabilizer in Test Solution (3% Avobenzone), UV dose 60 Joules/cm^2
[13] = 4% stabilizer in Test Solution (3% Avobenzone), UV dose 80 Joules/cm^2
[14] = 4% stabilizer in Test Solution (3% Avobenzone), UV dose 100 Joules/cm^2
[15] = 2% stabilizer in Test Solution (3% Avobenzone), UV dose 0 Joules/cm^2
[16] = 2% stabilizer in Test Solution (3% Avobenzone), UV dose 20 Joules/cm^2
[17] = 2% stabilizer in Test Solution (3% Avobenzone), UV dose 40 Joules/cm^2
[18] = 2% stabilizer in Test Solution (3% Avobenzone), UV dose 60 Joules/cm^2
[19] = 2% stabilizer in Test Solution (3% Avobenzone), UV dose 80 Joules/cm^2
[20] = 2% stabilizer in Test Solution (3% Avobenzone), UV dose 100 Joules/cm^2

Compound: Cc1ccc(C(C)C)cc2c(C)ccc1-2 [Guaiazulene]
lost due to degradation [1]: ~90%

Compound: CC1=C(/C=C/C(C)=C/C=C/C(C)=C\C(=O)O)C(C)(C)CCC1 [isotretinoin, 13-cis-retinoic acid]
solubility in diethylhexyl diester of 2,6-naphthalene-dicarboxylic acid [2]: approximately 6.7 mg/ml

% remaining [3, 9]: 100%
% remaining [3, 10]: 96%
% remaining [3, 11]: 90%
% remaining [3, 12]: 80%
% remaining [3, 13]: 73%
% remaining [3, 14]: 68%
melting point: 82 to 84 °C
Compound: COc1ccc(C=C(C(C)=O)C(C)=O)cc1 [Compound 3, 3-(4-methoxybenzylidene)-2,4-pentanedione]

hydrolytic stability ([4]; pH 7, 8, and 9 at 40° C. and at 60° C. for at least 8 hrs): stable
GC purity (Area %) ([4]; pH 7, 40° C., 4 h): 98.9 Area %
GC purity (Area %) ([4]; pH 7, 40° C., 8 h): 99.1 Area %
GC purity (Area %) ([4]; pH 7, 60° C., 4 h): 98.6 Area %
GC purity (Area %) ([4]; pH 7, 60° C., 8 h): 99.0 Area %
GC purity (Area %) ([4]; pH 7, RT (~27° C.), 4 h): 98.8 Area %
GC purity (Area %) ([4]; pH 7, RT (~27° C.), 8 h): 99.0 Area %
GC purity (Area %) ([4]; pH 8, 40° C., 4 h): 98.9 Area %
GC purity (Area %) ([4]; pH 8, 40° C., 8 h): 99.1 Area %
GC purity (Area %) ([4]; pH 8, 60° C., 4 h): 99.2 Area %
GC purity (Area %) ([4]; pH 8, 60° C., 8 h): 99.0 Area %
GC purity (Area %) ([4]; pH 8, RT (~27° C.), 4 h): 98.7 Area %
GC purity (Area %) ([4]; pH 8, RT (~27° C.), 8 h): 99.2 Area %
GC purity (Area %) ([4]; pH 9, 40° C., 4 h): 99.0 Area %
GC purity (Area %) ([4]; pH 9, 40° C., 8 h): 98.9 Area %
GC purity (Area %) ([4]; pH 9, 60° C., 4 h): 99.1 Area %
GC purity (Area %) ([4]; pH 9, 60° C., 8 h): 98.8 Area %
GC purity (Area %) ([4]; pH 9, RT (~27° C.), 4 h): 98.8 Area %
GC purity (Area %) ([4]; pH 9, RT (~27° C.), 8 h): 98.8 Area %
% remaining [3, 15]: 100%
% remaining [3, 16]: 96%
% remaining [3, 17]: 90%
% remaining [3, 18]: 84%
% remaining [3, 19]: 77%
% remaining [3, 20]: 70%
% remaining [3, 9]: 100%
% remaining [3, 10]: 96%
% remaining [3, 11]: 90%
% remaining [3, 12]: 84%
% remaining [3, 13]: 80%
% remaining [3, 14]: 76%
photostability of sunscreen formulation (% remaining) ([6]; 2% stabilizer in sunscreen with 2% butyl methoxydibenzoylmethane, UV dose 0 Joules/cm^2): 100%
photostability of sunscreen formulation (% remaining) ([6]; 2% stabilizer in sunscreen with 2% butyl methoxydibenzoylmethane, UV dose 20 Joules/cm^2): 96%
photostability of sunscreen formulation (% remaining) ([6]; 2% stabilizer in sunscreen with 2% butyl methoxydibenzoylmethane, UV dose 40 Joules/cm^2): 92%
photostability of sunscreen formulation (% remaining) ([6]; 2% stabilizer in sunscreen with 2% butyl methoxydibenzoylmethane, UV dose 60 Joules/cm^2): 88%
Compound: COc1cc(C=C(C(C)=O)C(C)=O)cc(OC)c1OC [HSS, 3-(3,4,5-trimethoxybenzylidene)-2,4-pentanedione]
stability (auto-oxidation) in the presence of iron and copper ions [5]: stable irrespective of the presence of iron and copper ions
change in color, Delta E [7]: 12.3
color fading of dye formulation [8]: failed to manifest color fading

% remaining [3, 15]: 100%
% remaining [3, 16]: 59%
% remaining [3, 17]: 26%
Compound: COc1ccc(/C=C/C(C)=O)cc1OC [Dehydrozingerone methyl ether, Dehydrozingerone methylether]
stabilization of photosensitive compounds ([3]; summary statement): fails to stabilize photosensitive compounds

% remaining [3, 15]: 100%
% remaining [3, 16]: 92%
% remaining [3, 17]: 80%
% remaining [3, 18]: 68%
% remaining [3, 19]: 64%
% remaining [3, 20]: 58%
% remaining [3, 9]: 100%
% remaining [3, 10]: 94%
% remaining [3, 11]: 83%
% remaining [3, 12]: 73%
% remaining [3, 13]: 67%
% remaining [3, 14]: 60%
photostability of sunscreen formulation (% remaining) ([6]; 4% stabilizer in sunscreen with 2% butyl methoxydibenzoylmethane, UV dose 0 Joules/cm^2): 100%
photostability of sunscreen formulation (% remaining) ([6]; 4% stabilizer in sunscreen with 2% butyl methoxydibenzoylmethane, UV dose 20 Joules/cm^2): 94%
photostability of sunscreen formulation (% remaining) ([6]; 4% stabilizer in sunscreen with 2% butyl methoxydibenzoylmethane, UV dose 40 Joules/cm^2): 89%
photostability of sunscreen formulation (% remaining) ([6]; 4% stabilizer in sunscreen with 2% butyl methoxydibenzoylmethane, UV dose 60 Joules/cm^2): 82%
Compound: CCCCC(CC)COC(=O)C(C#N)=C(c1ccccc1)c1ccccc1 (stereo not drawn) [Octocrylene]

Compound: CC1=C(/C=C/C(C)=C/C=C/C(C)=C/C(=O)O)C(C)(C)CCC1 [tretinoin, all-trans-retinoic acid]
solubility in diethylhexyl diester of 2,6-naphthalene-dicarboxylic acid [2]: approximately 5.6 mg/ml
solubility in water ([2]; water): practically insoluble
